# From patent US20260014119A1, “EMOPAMIL-BINDING PROTEIN INHIBITORS AND USES THEREOF” (BIOGEN MA INC., priority 2022, published 2026)
# Molecular target: T1, EBP (Homo sapiens, UniProt Q15125)
# T1 construct: HEK293T cells were utilized as the source of EBP enzyme; endogenous in cells; host or cells: HEK293T
# Test: EBP Functional Assay (EBP immunoaffinity LC-MS assay)
# Assay type: biochemical
# Settings: EBP enzyme from HEK293T cells; 30 min with inhibitor, then zymosterol-d5 at 37° C. for 4 h; percent conversion by LC-APCI MRM MS
# Procedure: The EBP immunoaffinity (IA) LC-MS assay measures the potency of small molecule inhibitors of EBP by quantifying their concentration-dependent changes in the enzyme's substrate and product using liquid chromatography atmospheric pressure chemical ionization multiple reaction monitoring mass spectrometry (LC-APCI MRM MS). HEK293T cells were utilized as the source of EBP enzyme. The enzyme was incubated with the small molecule inhibitors at variable concentrations for 30 min. Deuterated form of EBP substrate, zymosterol-d5 (Avanti Polar Lipids, Cat #700068P-1 mg), was then added and the plate was incubated at 37° C. for 4 h. Finally, the sterol isomers were extracted and injected to LC-APCI MRM MS. MRM transition used for the quantification for both zymosterol and […] (substrate and product of EBP enzymatic reaction, respectively) is 372.3-203.2, CE 30 and DP 80 in positive ion mode. Percent conversion of the zymosterol-d5 to dehydrolathosterol-d5 was used to derive IC50 curves. Tasin-1 (1′-[(4-Methoxyphenyl)sulfonyl]-4-methyl-1,4′-bipiperidine, CAS 792927-06-1) was used as the reference small molecule inhibitor.
# Percent conversion versus the compound concentration data were fit to the following 4-parameter logistic model to generate IC50 curves: […]
# T1 sequence (Q15125 whole entry): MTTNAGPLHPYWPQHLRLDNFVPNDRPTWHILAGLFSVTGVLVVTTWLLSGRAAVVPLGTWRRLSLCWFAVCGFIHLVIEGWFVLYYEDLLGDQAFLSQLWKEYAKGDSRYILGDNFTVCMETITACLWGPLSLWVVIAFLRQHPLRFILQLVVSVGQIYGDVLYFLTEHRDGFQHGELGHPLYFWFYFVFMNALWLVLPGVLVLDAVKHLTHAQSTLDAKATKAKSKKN
row,Compound,IC50 [nM]
1,"O=S(=O)(c1ccc(OC(F)F)cc1)N1C[C@H]2C[C@H](NC3COC3)C[C@H]2C1 [Example 14, (3aR,5s,6aS)-2-((4-(Difluoromethoxy)phenyl)sulfonyl)-N-(oxetan-3-yl)octahydrocyclopenta[c]pyrrol-5-amine]",> 500
2,"O=S(=O)(c1ccc(OC(F)F)cc1)N1C[C@H]2C[C@H](NC3CCOC3)C[C@H]2C1 (stereo partly drawn) [Example 15, (3aR,5s,6aS)-2-((4-(Difluoromethoxy)phenyl)sulfonyl)-N-(tetrahydrofuran-3-yl)octahydrocyclopenta[c]pyrrol-5-amine]",100 to 500
3,"CN(CC1CCOCC1)[C@H]1C[C@@H]2CN(S(=O)(=O)c3ccc(OC(F)F)cc3)C[C@@H]2C1 [Example 17, (3aR,5s,6aS)-2-((4-(Difluoromethoxy)phenyl)sulfonyl)-N-methyl-N-((tetrahydro-2H-pyran-4-yl)methyl)octahydrocyclopenta[c]pyrrol-5-amine]",100 to 500
4,"O=S(=O)(c1ccc(OC(F)F)cc1)N1C[C@H]2C[C@H](NC3CC4(COC4)C3)C[C@H]2C1 [Example 19, (3aR,5s,6aS)-2-((4-(Difluoromethoxy)phenyl)sulfonyl)-N-(2-oxaspiro[3.3]heptan-6-yl)octahydrocyclopenta[c]pyrrol-5-amine]",100 to 500
5,"Cn1nc(C2CC2)cc1S(=O)(=O)N1C[C@H]2C[C@H](NC3CC4(COC4)C3)C[C@H]2C1 [Example 20, (3aR,5s,6aS)-2-((3-Cyclopropyl-1-methyl-1H-pyrazol-5-yl)sulfonyl)-N-(2-oxaspiro[3.3]heptan-6-yl)octahydrocyclopenta[c]pyrrol-5-amine]",100 to 500
6,"Cc1nc(C(F)(F)F)ccc1S(=O)(=O)N1C[C@H]2C[C@H](NC3CC4(COC4)C3)C[C@H]2C1 [Example 30, (3aR,5s,6aS)-2-((2-Methyl-6-(trifluoromethyl)pyridin-3-yl)sulfonyl)-N-(2-oxaspiro[3.3]heptan-6-yl)octahydrocyclopenta[c]pyrrol-5-amine]",100 to 500
7,"Cc1cc(S(=O)(=O)N2C[C@H]3CN(C4CCOCC4)C[C@H]3C2)n(C)n1 [Example 31, (3aR,6aS)-2-((1,3-dimethyl-1H-pyrazol-5-yl)sulfonyl)-5-(tetrahydro-2H-pyran-4-yl)octahydropyrrolo[3,4-c]pyrrole]",100 to 500
8,"N#Cc1cc(F)cc(S(=O)(=O)N2C[C@H]3CN(C4CCOCC4)C[C@H]3C2)c1 [Example 33, 3-Fluoro-5-(((3aR,6aS)-5-(tetrahydro-2H-pyran-4-yl)hexahydropyrrolo[3,4-c]pyrrol-2(1H)-yl)sulfonyl)benzonitrile]",> 500
9,"Cc1nc(C(F)(F)F)ccc1S(=O)(=O)N1C[C@H]2CN(C3CCOCC3)C[C@H]2C1 [Example 35, (3aR,6aS)-2-((2-Methyl-6-(trifluoromethyl)pyridin-3-yl)sulfonyl)-5-(tetrahydro-2H-pyran-4-yl)octahydropyrrolo[3,4-c]pyrrole]",< 100
10,"O=S(=O)(c1cc(F)cc(F)c1)N1C[C@H]2CN(C3CCOCC3)C[C@H]2C1 [Example 39, (3aR,6aS)-2-((3,5-Difluorophenyl)sulfonyl)-5-(tetrahydro-2H-pyran-4-yl)octahydropyrrolo[3,4-c]pyrrole]",100 to 500
11,"Cc1nc(C(F)(F)F)ccc1S(=O)(=O)N1C[C@H]2CN(C3CCOCC3)C[C@@H]2C1 [Example 45, (3aR,6aR)-2-((2-Methyl-6-(trifluoromethyl)pyridin-3-yl)sulfonyl)-5-(tetrahydro-2H-pyran-4-yl)octahydropyrrolo[3,4-c]pyrrole]",100 to 500
12,"Cn1nc(C(F)(F)F)cc1S(=O)(=O)N1C[C@H]2CN(C3CCOCC3)C[C@@H]2C1 [Example 46, (3aR,6aR)-2-((1-Methyl-3-(trifluoromethyl)-1H-pyrazol-5-yl)sulfonyl)-5-(tetrahydro-2H-pyran-4-yl)octahydropyrrolo[3,4-c]pyrrole]",100 to 500
13,"Cc1cc(S(=O)(=O)N2C[C@H]3CN(C4CCOCC4)C[C@H]3C2)n(C)n1 [Example 49, Rac-(3aR,6aS)-2-((1,3-dimethyl-1H-pyrazol-5-yl)sulfonyl)-5-(tetrahydro-2H-pyran-4-yl)octahydropyrrolo[3,4-c]pyrrole]",> 500
14,"Cc1nc(C(F)(F)F)nc(C)c1S(=O)(=O)N1C[C@H]2CN(C3CCOCC3)C[C@@H]2C1 [Example 60, (3aR,6aR)-2-((4,6-dimethyl-2-(trifluoromethyl)pyrimidin-5-yl)sulfonyl)-5-(tetrahydro-2H-pyran-4-yl)octahydropyrrolo[3,4-c]pyrrole]",< 100
15,"Cc1nc(C(F)(F)F)nc(C)c1S(=O)(=O)N1C[C@H]2CN(C3CC4(COC4)C3)C[C@@H]2C1 [Example 61, (3aR,6aR)-2-((4,6-dimethyl-2-(trifluoromethyl)pyrimidin-5-yl)sulfonyl)-5-(2-oxaspiro[3.3]heptan-6-yl)octahydropyrrolo[3,4-c]pyrrole]",< 100
16,"Cc1nc(C(F)(F)F)nc(C)c1S(=O)(=O)N1C[C@H]2CN(CC3CCOCC3)C[C@@H]2C1 [Example 62, (3aR,6aR)-2-((4,6-dimethyl-2-(trifluoromethyl)pyrimidin-5-yl)sulfonyl)-5-((tetrahydro-2H-pyran-4-yl)methyl)octahydropyrrolo[3,4-c]pyrrole]",< 100

# Continued, values first:
row,IC50 [nM],Compound
1,< 100,"O=S(=O)(c1ccc(OC(F)F)cc1)N1C[C@H]2C[C@H](NC3CCOCC3)C[C@H]2C1 [Example 16, (3aR,5s,6aS)-2-((4-(Difluoromethoxy)phenyl)sulfonyl)-N-(tetrahydro-2H-pyran-4-yl)octahydrocyclopenta[c]pyrrol-5-amine]"
2,< 100,"Cn1nc(C2CC2)cc1S(=O)(=O)N1C[C@H]2C[C@H](NCC3(C)COC3)C[C@H]2C1 [Example 21, (3aR,5s,6aS)-2-((3-Cyclopropyl-1-methyl-1H-pyrazol-5-yl)sulfonyl)-N-((3-methyloxetan-3-yl)methyl)octahydrocyclopenta[c]pyrrol-5-amine]"
3,< 100,"Cc1nc(C(F)(F)F)ccc1S(=O)(=O)N1C[C@H]2C[C@H](N(C)CC3CCOCC3)C[C@H]2C1 [Example 23, (3aR,5s,6aS)-N-Methyl-2-((2-methyl-6-(trifluoromethyl)pyridin-3-yl)sulfonyl)-N-((tetrahydro-2H-pyran-4-yl)methyl)octahydrocyclopenta[c]pyrrol-5-amine]"
4,< 100,"Cc1nc(C(F)(F)F)ccc1S(=O)(=O)N1C[C@H]2C[C@H](NCC3CCOCC3)C[C@H]2C1 [Example 27, (3aR,5s,6aS)-2-((2-Methyl-6-(trifluoromethyl)pyridin-3-yl)sulfonyl)-N-((tetrahydro-2H-pyran-4-yl)methyl)octahydrocyclopenta[c]pyrrol-5-amine]"
5,< 100,"Cc1nc(C(F)(F)F)ccc1S(=O)(=O)N1C[C@H]2C[C@H](NC3CCOCC3)C[C@H]2C1 [Example 28, (3aR,5s,6aS)-2-((2-Methyl-6-(trifluoromethyl)pyridin-3-yl)sulfonyl)-N-(tetrahydro-2H-pyran-4-yl)octahydrocyclopenta[c]pyrrol-5-amine]"
6,< 100,"Cc1nc(C(F)(F)F)ccc1S(=O)(=O)N1C[C@H]2C[C@H](NCC3(C)COC3)C[C@H]2C1 [Example 29, (3aR,5s,6aS)-2-((2-Methyl-6-(trifluoromethyl)pyridin-3-yl)sulfonyl)-N-((3-methyloxetan-3-yl)methyl)octahydrocyclopenta[c]pyrrol-5-amine]"
7,< 100,"Cc1cc(C)c(S(=O)(=O)N2CC3CN(C4CCOCC4)CC3C2)c(C)c1 (stereo not drawn) [Example 32, 2-(Mesitylsulfonyl)-5-(tetrahydro-2H-pyran-4-yl)octahydropyrrolo[3,4-c]pyrrole]"
8,< 100,"COc1ccc(S(=O)(=O)N2C[C@H]3CN(C4CCOCC4)C[C@H]3C2)c(C)n1 [Example 34, (3aR,6aS)-2-((6-Methoxy-2-methylpyridin-3-yl)sulfonyl)-5-(tetrahydro-2H-pyran-4-yl)octahydropyrrolo[3,4-c]pyrrole]"
